Measured values published in paper PMC6273820, “Antimicrobial Activity and Stability of Short and Long Based Arachnid Synthetic Peptides in the Presence of Commercial Antibiotics” (Molecules, 2016).
Where no end group is shown, it is not given here.

Legend:
[1] = tested on: Escherichia coli ATCC 25922; experiment: microbe, parasite or virus in culture; type: cell-based; settings: broth microdilution (CLSI), Mueller-Hinton broth, 18 h at 37 °C, A625nm; peptides n = 8
Protocol: It was determined using the broth microdilution assay in accordance with the procedures from the Clinical and Laboratory Standards Institute. For broth microdilution assays, pathogenic bacteria, such as Escherichia coli ATCC 25922, Staphylococcus aureus ATCC 25923, Pseudomonas aeruginosa ATCC 27853 and Klebsiella pneumoniae ST258, were cultured in Mueller-Hinton broth (MHB) at 37 °C until an end point between of 0.08 and 0.13 units of absorbance at 625 nm and diluted 1:100 in MHB (ca. […]). Fifty microliters of this bacterial suspension was dispensed into each well of a 96-well microtiter Costar® culture plates (Sigma Aldrich) having 50 µL of MHB containing a proper concentration of pure AMPs, antibiotics or the mixture of either of the AMPs with either of the antibiotics used. Dilutions of peptides and antibiotics were made manually with two-fold dilutions. […]

[2] = tested on: Pseudomonas aeruginosa ATCC 27853; experiment: microbe, parasite or virus in culture; type: cell-based; settings: broth microdilution (CLSI), Mueller-Hinton broth, 18 h at 37 °C, A625nm; peptides n = 8
Protocol: (§1) It was determined using the broth microdilution assay in accordance with the procedures from the Clinical and Laboratory Standards Institute. For broth microdilution assays, pathogenic bacteria, such as Escherichia coli ATCC 25922, Staphylococcus aureus ATCC 25923, Pseudomonas aeruginosa ATCC 27853 and Klebsiella pneumoniae ST258, were cultured in Mueller-Hinton broth (MHB) at 37 °C until an end point between of 0.08 and 0.13 units of absorbance at 625 nm and diluted 1:100 in MHB (ca. […]). Fifty microliters of this bacterial suspension was dispensed into each well of a 96-well microtiter Costar® culture plates (Sigma Aldrich) having 50 µL of MHB containing a proper concentration of pure AMPs, antibiotics or the mixture of either of the AMPs with either of the antibiotics used. Dilutions of peptides and antibiotics were made manually with two-fold dilutions.
(§2) E. coli, S. aureus, P. aeruginosa and K. pneumoniae were grown in the presence of each of the four AMPs, and in the presence of each of the eight commercial antibiotics, which were Levofloxacin, Trimethoprim, Sulfamethoxazole, Azithromycin, Amoxicillin, Ceftriaxone, Gentamicin and Vancomycin, and in combinations of AMPs and the antibiotics. That is, the antimicrobial capacity of each AMP (50, 25, 12.5 and 6.2 µg/ mL) in combination with each antibiotic agent (50, 25, 12.5, 3.2, 1.6 and 0 µg/ mL) was measured as described above. For evaluation of the effect of the mixtures, the fractional inhibitory concentration (FIC) was calculated for each antibiotic in each combination. The following formulas were used to calculate the FIC index: FIC of AMP = MIC of AMP in combination with Antibiotic/MIC of AMP alone; FIC of Antibiotic = MIC of Antibiotic in combination with AMP/MIC of Antibiotic alone, and FIC index = FIC of AMP + FIC of Antibiotic. Synergy was defined as an FIC index of <0.5. Additive was defined as an FIC index of >0.5 but of <4, and finally antagonism was defined as an FIC index of >4.

[3] = tested on: Staphylococcus aureus ATCC 25923; experiment: microbe, parasite or virus in culture; type: cell-based; settings: broth microdilution (CLSI), Mueller-Hinton broth, 18 h at 37 °C, A625nm; peptides n = 8
Protocol: as §1, §2

[4] = tested on: Klebsiella pneumoniae ST258; experiment: microbe, parasite or virus in culture; type: cell-based
Protocol: as §1
as §2, with “That” for “E. coli, S. aureus, P. aeruginosa and K. pneumoniae were grown in the presence of each of the four AMPs, and in the presence of each of the eight commercial antibiotics, which were Levofloxacin, Trimethoprim, Sulfamethoxazole, Azithromycin, Amoxicillin, Ceftriaxone, Gentamicin and Vancomycin, and in combinations of AMPs and the antibiotics. That”

[5] = Stability in saline buffer (PBS); type: physicochemical; settings: 20 μg peptide in PBS pH 7.4, 37 °C, 7 days; height of peptide peak in reverse phase HPLC
Protocol: The stability of the four synthetic peptides (20 μg) was measured in phosphate buffered saline (PBS) that consisted of NaCl (137 mM), KCl (2.7 mM), Na2HPO4 (10 mM) and KH2PO4 (2 mM) at 37 °C for 7 days (pH 7.4). The stability of peptides in PBS was monitored measuring the height of the peptide peak when separated using reverse phase HPLC under the separation conditions mentioned above.

[6] = Stability in human blood plasma; type: in vitro ADME; settings: 50 μg/mL
Protocol: (§3) The four synthetic peptides were subjected to incubation in human blood plasma or in the supernatant of S. aureus and P. aeruginosa growth. The AMPs were diluted in human blood plasma or in the supernatant of bacterial growth (50 μg/mL) and incubated at 37 °C for 12 h. After peptide extraction, the AMPs were separated by reverse phase HPLC using a C18 column (Vydac 218 TP54, Grace Co.) and a linear gradient of acetonitrile in 0.1% aqueous TFA from 0 to 60% in 60 min at a flow rate of 1 mL/min. Effluent absorbance was monitored at 230 nm. Peptide fractions were dried under vacuum, resuspended and analyzed by ESI-MS to confirm their molecular masses.

[7] = Stability in supernatant of S. aureus growth; type: in vitro ADME, Staphylococcus aureus; settings: 50 μg/mL, 12 h at 37 °C, extraction, reverse phase HPLC at 230 nm
Protocol: as §3

[8] = Stability in supernatant of P. aeruginosa growth; type: in vitro ADME, Pseudomonas aeruginosa; settings: 50 μg/mL, 12 h at 37 °C, extraction, reverse phase HPLC at 230 nm
Protocol: as §3

[9] = cited from earlier work
Text: Concerning AMPs, several physicochemical characteristics have been associated with the biological activity of them. Those that are relevant include hydrophobicity, the helical hydrophobic moment, as well as the size and the net charge of the peptide. However, no particular value relating to any of these characteristics was solely sufficient to correlate with the antimicrobial activity of the AMPs tested. In this case, however, the larger peptides FA1 and Pin2[G] were the AMPs that manifested optimum biological performance. Nevertheless, a fine balance in terms of physicochemical pr ...

Q: With GILKTIKSIASKVANTVQKLKRKAKNAV [FA1] as the sequence, how does the “Minimal Inhibitory Concentration, E. coli” value [1] read?
A: 12.5 µg/mL

Q: What about the “Minimal Inhibitory Concentration, P. aureginosa” value [2] of the same sequence?
A: 25 µg/mL

Q: What about the “Minimal Inhibitory Concentration, S. aureus” value [3] of the same sequence?
A: >50 µg/mL

Q: What about the “Minimal Inhibitory Concentration, K. pneumoniae” value ([4]; broth microdilution (CLSI), Mueller-Hinton broth, 18 h at 37 °C, A625nm, peptides n = 8) of the same sequence?
A: >50 µg/mL

Q: And the “Peptide (MIC)” value ([4]; peptide alone against K. pneumoniae, based on Figure 2)?
A: >50 mg/L

Q: What about the “Stability in saline buffer” value [5] of the same sequence?
A: less stable

Q: What about the “Peptide found after incubation in human blood plasma” value ([6]; 12 h at 37 °C, extraction, reverse phase HPLC at 230 nm, ESI-MS) of the same sequence?
A: not found

Q: What about the “Recovery after interaction with human plasma, first few minutes of dilution” value ([6]; extracted after the first few minutes of dilution, reverse phase HPLC) of the same sequence?
A: none

Q: And the “Stability in supernatants of S. aureus” value [7]?
A: only a small amount

Q: What about the “Stability in supernatants of P. aeruginosa” value [8] of the same sequence?
A: not found

Q: And the hemolytic activity [9]?
A: 665 µM
